# How the values were obtained:
# [1] = effective magnetic moment, Evans magnetic susceptibility balance; format: physicochemical; settings: measured at 295K
# From the text: The paramagnetic properties of MILs provide a unique advantage over conventional ILs by permitting control over substrate motion through the application of an external magnetic field. […] The general expression for molar magnetic susceptibility using the Evans balance is shown in eq 1:
# [formula] where XM represents the molar magnetic susceptibility, Cbal is the balance calibration constant, L corresponds to the length of the sample in the tube, M is the molecular weight of the compound being measured, R is the instrument reading for the sample in the tube, Ro is the instrument reading for the empty sample tube, and m is the mass of sample introduced into the Evan's balance. From XM, it is possible to calculate μeff according to eq 2: μeff=2.83√{square root over (XMT)} (2) where T is the absolute temperature. […] In order to increase the magnetic susceptibility of MILs, multiple paramagnetic iron(III) centers were incorporated into the MIL structure. […] The iron(III)-based MILs represent an inexpensive and useful alternative to MILs based on lanthanides, such as Dy(III) (μeff=10.6 μB). Moreover, the higher response of MILs 10 and 11 toward magnetic fields enables the use of smaller magnets with lower field strength for their manipulation in solution, which is useful in miniaturized magnet-based systems.
# [2] = solubility of MILs in water; format: physicochemical
# From the text: Independent of the substituent functional groups imparted by the quaternization reaction, MILs 1-3 were immiscible with water at compositions as low as 0.1% (w/v) MIL. The hydrophobic properties of the monocationic MILs are thus useful for applications such as aqueous liquid-liquid microextractions, where extremely low phase ratios of extraction solvent are employed.
# [3] = target: T1, albumin from chicken egg white (Gallus gallus, UniProt P01012); experiment: MIL-based DDE, coextraction of protein from stDNA/albumin matrix; settings: pH 4.4; albumin 3.4 μM, stDNA 4.17 nM
# T1 construct: albumin from chicken egg white; purchased Sigma-Aldrich (St. Louis, Mo., USA); host or cells: chicken egg white (natural source)
# T1 sequence (P01012 1-386): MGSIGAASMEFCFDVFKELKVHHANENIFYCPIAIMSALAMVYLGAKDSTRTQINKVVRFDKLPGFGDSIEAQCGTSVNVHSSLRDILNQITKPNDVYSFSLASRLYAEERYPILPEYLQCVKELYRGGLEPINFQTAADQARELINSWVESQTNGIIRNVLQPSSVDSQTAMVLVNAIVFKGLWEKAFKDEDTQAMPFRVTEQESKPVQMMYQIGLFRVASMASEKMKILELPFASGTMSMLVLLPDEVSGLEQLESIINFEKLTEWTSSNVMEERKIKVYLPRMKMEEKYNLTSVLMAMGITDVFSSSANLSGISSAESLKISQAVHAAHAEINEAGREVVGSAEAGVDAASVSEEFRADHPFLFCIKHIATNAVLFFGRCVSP
# Method: High performance liquid chromatography with UV detection was performed on a LC-20A liquid chromatograph (Shimadzu, Japan) consisting of two LC-20AT pumps, a SPD-20 UV/vis detector, and a DGU-20A3 degasser. Chromatographic separations were performed on a 35 mm×4.6 mm i.d.×2.5 μm TSKgel DEAE-NPR anion exchange column with a 5 mm×4.6 mm i.d.×5 μm TSKgel DEAE-NPR guard column from Tosoh Bioscience (King of Prussia, Pa.). The column was equilibrated with a mobile phase composition of 50:50 (A) 20 mM Tris-HCl (pH 8), and (B) 1 M NaCl/20 mM Tris-HCl (pH 8). For stDNA analysis, gradient elution was performed beginning with 50% mobile phase B and increased to 100% B over 10 min. In the separation of ssDNA as well as DNA and albumin, the column was first equilibrated with 20 mM Tris-HCl followed by gradient elution from 0% to 50% B over 10 min and then 50% to 100% B over 5 min. A flow rate of 1 mL min−1 was used for all HPLC separations. DNA and albumin were detected at 260 and 280 nm, respectively.
# Sample matrices containing either metal ions or protein (albumin) were prepared from stock solutions. A sample solution containing 388 mM NaCl, 153 mM KCl, 38.1 mM CaCl2.2H2O, 28.3 mM MgCl2.6H2O, and 4.17 nM stDNA was extracted in triplicate using MIL-based DDE for all three MILs. For experiments involving protein as a matrix component, the samples were prepared at an albumin concentration of 3.4 μM and stDNA concentration of 4.17 nM with the pH varied from 3.5 to 8.
# [4] = thermal stability by thermal gravimetric analysis (TGA); settings: temperature at which 5 wt % loss of MIL is observed
# [5] = solubility of MILs in hexanes; format: physicochemical
Molecule,μeff (effective magnetic moment) [1],solubility in water [2],albumin extraction efficiency [3],thermal stability [4],solubility in hexanes [5]
CCCCCCCC[N+](CCCCCCCC)(CCCCCCCC)Cc1ccc(C(C)(C)C)cc1.[Cl][Fe-]([Cl])([Cl])[Br] [MIL 3],5.68 μB,I^d (Insoluble at 0.1% (w/v)),–,–,–
O=S(=O)([N-]S(=O)(=O)C(F)(F)F)C(F)(F)F.[Cl][Fe-]([Cl])([Cl])[Br].c1ccc(Cn2c[n+](CCCCCCCCCCCC[n+]3cn(Cc4ccccc4)c4ccccc43)c3ccccc32)cc1 [MIL 7],5.45 μB,I^d (Insoluble at 0.1% (w/v)),–,–,–
CCCCCCCCCCCCCCCCn1c[n+](CCCCCCCCCCCC[n+]2cn(CCCCCCCCCCCCCCCC)c3ccccc32)c2ccccc21.[Cl][Fe-]([Cl])([Cl])[Br].[Cl][Fe-]([Cl])([Cl])[Br] [MIL 6c],7.58 μB,I^e (Insoluble at 0.25% (w/v)),–,–,–
CCCCCCCCCCCCCCCCn1c[n+](CCCCCCCCCCCC[n+]2ccn(Cc3ccccc3)c2)c2ccccc21.O=S(=O)([N-]S(=O)(=O)C(F)(F)F)C(F)(F)F.[Cl][Fe-]([Cl])([Cl])[Br] [MIL 8],5.30 μB,I^d (Insoluble at 0.1% (w/v)),–,–,–
CCCCCCCCCCCCCCCCn1c[n+](CCCCCCCCCCCC[n+]2cn(CCCCCCCCCCCCCCCC)c3ccccc32)c2ccccc21.O=S(=O)([N-]S(=O)(=O)C(F)(F)F)C(F)(F)F.[Cl][Fe-]([Cl])([Cl])[Br] [MIL 6],5.69 μB,Id,~40%,–,–
CCCCCCCC[N+](CCCCCCCC)(CCCCCCCC)Cc1cccc(OC)c1.[Cl][Fe-]([Cl])([Cl])[Br] [MIL 2],5.60 μB,I^d (Insoluble at 0.1% (w/v)),–,–,–
CCCCCCCCSCCC[n+]1ccn(Cc2cc(Cn3cc[n+](CCCSCCCCCCCC)c3)cc(Cn3cc[n+](CCCSCCCCCCCC)c3)c2)c1.[Cl][Fe-]([Cl])([Cl])[Br].[Cl][Fe-]([Cl])([Cl])[Br].[Cl][Fe-]([Cl])([Cl])[Br] [MIL 11],11.76 μB,I^e (Insoluble at 0.25% (w/v)),–,–,–
CCCCCCCCCCCCCCCCn1cc[n+](CCCCCCCCCCCC[n+]2ccn(CCCCCCCCCCCCCCCC)c2C)c1C.O=S(=O)([N-]S(=O)(=O)C(F)(F)F)C(F)(F)F.[Cl][Fe-]([Cl])([Cl])[Br] [MIL 4b],5.37 μB,I^e (Insoluble at 0.25% (w/v)),–,–,–
"CCCCCCCCCCCCCC[P+](CCCCCC)(CCCCCC)CCCCCC.[Cl][Fe-]([Cl])([Cl])[Cl] [[P6,6,6,14+][FeCl4−], trihexyl(tetradecyl)phosphonium tetrachloroferrate(III), reference compound]",–,–,~40%,–,–
benzyltrioctylammonium bromotrichloroferrate(III) [MIL 1],5.26 μB,I^d (Insoluble at 0.1% (w/v)),5.0%,258 °C,I

# — US10280416B1, “Magnetic ionic liquids, methods of making and uses thereof as solvents in the extraction and preservation of nucleic acids” (The University of Toledo, priority 2015, dated 2019)
